Results from patent US20250195521A1 (Revolution Medicines, Inc., priority 2020, published 2025).
Read-outs that look alike come from different tables or passages of the source.

How the values were obtained:
AsPC-1 (K-Ras G12D) [1] = test: Potency assay: pERK; type: cell-based, human; settings: Homo sapiens, ASPC1, read-out: pERK EC50
Procedure, shortened: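 pERK decrease measured after 4 h compound treatment at 37 °C (10 three-fold dilutions, duplicate wells), by either fixed-cell In-Cell Western with DRAQ5 counterstain or AlphaLISA on lysates. Signal fitted against log concentration with a four-parameter model to give IC50.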

NCI-H358 (K-Ras G12C) = test: CellTiter-Glo cell viability assay, H358; type: cell-based, human; settings: Homo sapiens, NCI-H358, 120 h
Procedure, shortened: (§1)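 Luminescent viability readout on day 5 after direct compound addition to plated cells; plates sat ~30 min at room temperature before reading. Values expressed as percent of mean DMSO signal, curves fit with a four-parameter logistic model.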

KRAS G13C = KRAS G13C (Homo sapiens (Human), UniProt P01116+P62937, G13C); test: Ras-Raf disruption/FRET/MOA assay, KRAS G13C; type: biochemical
Excerpt: (§2) Disruption of B-Raf Ras-Binding Domain (BRAF^RBD) Interaction with K-Ras by Compounds of the Invention (Also Called a FRET Assay or an MOA Assay)
(§3) Note—The following protocol describes a procedure for monitoring disruption of K-Ras G12C (GMP-PNP) binding to BRAF^RBD by a compound of the invention. This protocol may also be executed substituting other Ras proteins or nucleotides, such as K-Ras G12D and K-Ras G13D.
(§4) The purpose of this biochemical assay was to measure the ability of test compounds to facilitate ternary complex formation between a nucleotide-loaded K-Ras isoform and Cyclophilin A; the resulting ternary complex disrupts binding to a BRAF^RBD construct, inhibiting K-Ras signaling through a RAF effector. Data is reported as IC50 values.
(§5) In assay buffer containing 25 mM HEPES pH 7.3, 0.002% Tween20, 0.1% BSA, 100 mM NaCl and 5 mM MgCl2, tagless Cyclophilin A, His6-K-Ras-GMPPNP, and GST-BRAF^RBD were combined in a 384-well assay plate at final concentrations of 25 μM, 12.5 nM, and 50 nM, respectively. Compound was present in plate wells as a 10-point 3-fold dilution series starting at a final concentration of 30 μM. After incubation at 25° C. for 3 hours, a mixture of anti-His Eu—W1024 and anti-GST allophycocyanin was then added to assay sample wells at final concentrations of 10 nM and 50 nM, respectively, and the reaction incubated for an additional 1.5 hours. […] Compounds that facilitate disruption of a K-Ras: RAF complex were identified as those eliciting a decrease in the TR-FRET ratio relative to DMSO control wells.

NRAS G12C = NRAS G12C (Homo sapiens (Human), UniProt P01111+P62937, G12C); test: Ras-Raf disruption/FRET/MOA assay, NRAS G12C; type: biochemical
Excerpt: as §2, §3, §4, §5

KRAS G12V = KRAS G12V (Homo sapiens (Human), UniProt P01116+P62937, G12V); test: Ras-Raf disruption/FRET/MOA assay, KRAS G12V; type: biochemical
Excerpt: as §2, §3, §4, §5

KRAS WT = KRAS WT (Homo sapiens (Human), UniProt P01116+P62937); test: Ras-Raf disruption/FRET/MOA assay, KRAS WT; type: biochemical
Excerpt: as §2, §3, §4, §5

KRAS G13D = KRAS G13D (Homo sapiens (Human), UniProt P01116+P62937, G13D); test: Ras-Raf disruption/FRET/MOA assay, KRAS G13D; type: biochemical
Excerpt: as §2, §3, §4, §5

KRAS G12S = KRAS G12S (Homo sapiens (Human), UniProt P01116+P62937, G12S); test: Ras-Raf disruption/FRET/MOA assay, KRAS G12S; type: biochemical
Excerpt: as §2, §3, §4, §5

KRAS G12D = KRAS G12D (Homo sapiens (Human), UniProt P01116+P62937, G12D); test: Ras-Raf disruption/FRET/MOA assay, KRAS G12D; type: biochemical
Excerpt: as §2, §3, §4, §5

KRAS G12C = KRAS G12C (Homo sapiens (Human), UniProt P01116+P62937, G12C); test: Ras-Raf disruption/FRET/MOA assay, KRAS G12C; type: biochemical
Excerpt: as §2, §3, §4, §5

AsPC-1 (K-Ras G12D) [2] = test: CellTiter-Glo cell viability assay, AsPC-1; type: cell-based, human; settings: Homo sapiens, ASPC1, 120 h, read-out: AsPC-1 Cell Viability IC50
Procedure, shortened: as §1

[3] = read-out: H358 Cell Viability IC50, K-Ras G12C, 5-day treatment

KRAS WT, sequence (P01116 other isoform, or with tags, fused parts or gaps): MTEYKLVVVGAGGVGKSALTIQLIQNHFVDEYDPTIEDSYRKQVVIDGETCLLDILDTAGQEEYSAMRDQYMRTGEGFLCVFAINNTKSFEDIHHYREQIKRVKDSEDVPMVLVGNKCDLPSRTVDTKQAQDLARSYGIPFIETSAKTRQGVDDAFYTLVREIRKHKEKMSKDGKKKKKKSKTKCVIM
KRAS WT, sequence (P62937 whole entry): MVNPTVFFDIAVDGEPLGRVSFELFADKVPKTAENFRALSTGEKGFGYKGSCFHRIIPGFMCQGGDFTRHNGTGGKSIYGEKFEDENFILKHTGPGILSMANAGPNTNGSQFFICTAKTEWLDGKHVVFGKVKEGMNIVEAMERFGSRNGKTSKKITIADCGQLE
KRAS G13D, sequence (P01116 other isoform, or with tags, fused parts or gaps G13D): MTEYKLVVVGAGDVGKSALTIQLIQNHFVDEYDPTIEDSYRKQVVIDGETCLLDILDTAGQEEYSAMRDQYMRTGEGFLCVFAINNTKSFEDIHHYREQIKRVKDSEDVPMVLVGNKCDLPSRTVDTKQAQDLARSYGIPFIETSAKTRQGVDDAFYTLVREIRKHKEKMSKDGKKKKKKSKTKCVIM
KRAS G13D, sequence (P62937 whole entry): as the sequence (P62937 whole entry) above
KRAS G12S, sequence (P01116 other isoform, or with tags, fused parts or gaps G12S): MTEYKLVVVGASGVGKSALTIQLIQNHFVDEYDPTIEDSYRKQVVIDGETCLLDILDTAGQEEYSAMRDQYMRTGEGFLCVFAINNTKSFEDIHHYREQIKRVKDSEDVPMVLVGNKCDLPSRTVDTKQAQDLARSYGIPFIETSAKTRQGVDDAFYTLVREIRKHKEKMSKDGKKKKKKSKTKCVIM
KRAS G12S, sequence (P62937 whole entry): as the sequence (P62937 whole entry) above
KRAS G12V, sequence (P01116 other isoform, or with tags, fused parts or gaps G12V): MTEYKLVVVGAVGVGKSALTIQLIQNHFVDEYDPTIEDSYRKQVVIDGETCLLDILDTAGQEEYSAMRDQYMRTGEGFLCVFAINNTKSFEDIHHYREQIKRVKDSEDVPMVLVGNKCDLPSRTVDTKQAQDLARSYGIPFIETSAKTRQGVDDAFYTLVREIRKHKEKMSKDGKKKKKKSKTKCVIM
KRAS G12V, sequence (P62937 whole entry): as the sequence (P62937 whole entry) above
KRAS G12C, sequence (P01116-2 other isoform, or with tags, fused parts or gaps G12C): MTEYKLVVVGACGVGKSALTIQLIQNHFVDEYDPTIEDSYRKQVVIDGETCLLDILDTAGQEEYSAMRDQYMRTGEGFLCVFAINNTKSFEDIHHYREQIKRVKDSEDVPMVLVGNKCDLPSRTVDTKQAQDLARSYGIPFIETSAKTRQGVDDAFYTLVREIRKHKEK
KRAS G12C, sequence (P62937 whole entry): as the sequence (P62937 whole entry) above
KRAS G13C, sequence (P01116 other isoform, or with tags, fused parts or gaps G13C): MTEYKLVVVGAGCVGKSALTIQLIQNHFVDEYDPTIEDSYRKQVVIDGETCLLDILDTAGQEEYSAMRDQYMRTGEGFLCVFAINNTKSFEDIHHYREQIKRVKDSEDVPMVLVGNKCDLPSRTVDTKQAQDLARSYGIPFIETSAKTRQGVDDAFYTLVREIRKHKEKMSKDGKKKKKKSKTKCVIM
KRAS G13C, sequence (P62937 whole entry, the tested form may be a part): as the sequence (P62937 whole entry) above
NRAS G12C, sequence (P01111 whole entry G12C): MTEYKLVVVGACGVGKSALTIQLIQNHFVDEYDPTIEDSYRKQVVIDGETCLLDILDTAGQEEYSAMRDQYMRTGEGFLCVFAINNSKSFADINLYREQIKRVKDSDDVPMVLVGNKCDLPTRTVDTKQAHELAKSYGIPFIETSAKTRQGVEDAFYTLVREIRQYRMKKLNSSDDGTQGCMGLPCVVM
NRAS G12C, sequence (P62937 whole entry): as the sequence (P62937 whole entry) above
KRAS G12D, sequence (P01116 other isoform, or with tags, fused parts or gaps G12D): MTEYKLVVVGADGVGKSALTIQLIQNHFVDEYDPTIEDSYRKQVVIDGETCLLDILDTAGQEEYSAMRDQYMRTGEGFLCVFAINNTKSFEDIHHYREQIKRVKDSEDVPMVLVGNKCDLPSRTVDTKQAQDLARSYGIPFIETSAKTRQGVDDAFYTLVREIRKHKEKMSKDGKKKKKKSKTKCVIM
KRAS G12D, sequence (P62937 whole entry): as the sequence (P62937 whole entry) above

Row | SMILES | EC50 (AsPC-1 (K-Ras G12D) [1]) [nM] | IC50 (NCI-H358 (K-Ras G12C); [3]) [nM] | IC50 (KRAS G13C) [nM] | IC50 (NRAS G12C) [nM] | IC50 (KRAS G12V) [nM] | IC50 (KRAS WT) [nM] | IC50 (KRAS G13D) [nM] | IC50 (KRAS G12S) [nM] | IC50 (KRAS G12D) [nM] | IC50 (KRAS G12C) [nM] | IC50 (AsPC-1 (K-Ras G12D) [2]) [nM] | IC50 (NCI-H358 (K-Ras G12C); read-out: H358 Cell Viability IC50) [nM] | IC50 (KRAS G13C; read-out: KRAS G13C FRET IC50) [nM] | IC50 (NRAS G12C; read-out: NRAS G12C FRET data IC50) [nM] | IC50 (KRAS G12V; read-out: KRAS G12V FRET IC50) [nM] | IC50 (KRAS WT; read-out: KRAS WT FRET IC50) [nM] | IC50 (KRAS G13D; read-out: KRAS G13D FRET IC50) [nM] | IC50 (KRAS G12S; read-out: KRAS G12S FRET IC50) [nM] | IC50 (KRAS G12D; read-out: KRAS G12D FRET IC50) [nM] | IC50 (KRAS G12C; read-out: KRAS G12C FRET data IC50) [nM]
1 | CCn1c(-c2cnccc2COC)c2c3cc(ccc31)-c1cc(O)cc(c1)C[C@H](NC(=O)[C@H](C(C)C)N(C)C(=O)CN(C)C(=O)[C@@H]1N[C@H]1c1ccccc1)C(=O)N1CCC[C@H](N1)C(=O)OCC(C)(C)C2 [Example 11] | < 5000 | 100 to 1000 | 10 to 100 | 10 to 100 | 10 to 100 | 100 to 1000 | 100 to 1000 | 10 to 100 | 1000 to 10000 | 10 to 100 | 1000 to 10000 |  |  |  |  |  |  |  |  | 
2 | CCn1c(-c2cnccc2COC)c2c3cc(ccc31)-c1cc(O)cc(c1)C[C@H](NC(=O)[C@H](C(C)C)N(C)C(=O)CN(C)C(=O)[C@H]1N[C@@H]1c1ccccc1)C(=O)N1CCC[C@H](N1)C(=O)OCC(C)(C)C2 [Example 12] | < 5000 | 100 to 1000 | 10 to 100 | 10 to 100 | 10 to 100 | 10 to 100 | 10 to 100 | 10 to 100 | 100 to 1000 | 10 to 100 | 100 to 1000 |  |  |  |  |  |  |  |  | 
3 | CCn1c(-c2cccnc2COC)c2c3cc(ccc31)-c1cc(O)cc(c1)C[C@H](NC(=O)[C@H](C(C)C)N(C)C(=O)CCNC(=O)NCCCl)C(=O)N1CCC[C@H](N1)C(=O)OCC(C)(C)C2 [Example 25, (2S)-2-(3-(3-(2-chloroethyl)ureido)-N-methylpropanamido)-N-((6^3S,4S)-1^1-ethyl-25-hydroxy-1^2-(2-(methoxymethyl)pyridin-3-yl)-10,10-dimethyl-5,7-dioxo-6^1,6^2,6^3,6^4,6^5,6^6-hexahydro-1^1H-8-oxa-1 (5,3)-indola-6 (1,3)-pyridazina-2 (1,3)-benzenacycloundecaphane-4-yl)-3-methylbutanamide] |  | > 10000 | 1000 to 10000 | > 10000 | 1000 to 10000 | 1000 to 10000 | 1000 to 10000 | > 10000 | > 10000 | 1000 to 10000 |  |  |  |  |  |  |  |  |  | 
4 | CCn1c(-c2cnccc2COC)c2c3cc(ccc31)-c1cc(O)cc(c1)C[C@H](NC(=O)[C@@H](CCNC1=NCCO1)C(C)C)C(=O)N1CCC[C@H](N1)C(=O)OCC(C)(C)C2 [Example 30] |  |  |  |  |  |  |  |  |  |  |  | 1000 to 10000 | > 10000 | > 10000 | 1000 to 10000 | 1000 to 10000 | 1000 to 10000 | > 10000 | > 10000 | 1000 to 10000
5 | CCn1c(-c2cnccc2COC)c2c3cc(ccc31)-c1cc(O)cc(c1)C[C@H](NC(=O)[C@H](C(C)C)N(C)C(=O)CN(C)C(=O)[C@H]1N[C@H]1C(=O)OC)C(=O)N1CCC[C@H](N1)C(=O)OCC(C)(C)C2 [Example 51] | < 5000 |  | 10 to 100 | 100 to 1000 | 100 to 1000 | 100 to 1000 | 100 to 1000 | 100 to 1000 | 100 to 1000 | 10 to 100 | > 10000 |  |  |  |  |  |  |  |  | 
6 | CCn1c(-c2cnccc2COC)c2c3cc(ccc31)-c1cc(O)cc(c1)C[C@H](NC(=O)[C@H](C(C)C)N(C)C(=O)CN(C)C(=O)[C@H]1N[C@H]1c1ccc(OC)cc1)C(=O)N1CCC[C@H](N1)C(=O)OCC(C)(C)C2 [Example 93] | < 5000 |  | 10 to 100 | 10 to 100 | 10 to 100 | 10 to 100 | 100 to 1000 | 10 to 100 | 100 to 1000 | 10 to 100 | > 10000 |  |  |  |  |  |  |  |  | 
